Legend:
Format in all cases: functional
WI-38 [1] = assay: Induction of apoptosis in human WI38 cells assessed as viable cells at […] after 48 hrs by annexin V/PI double staining (reference value: 80.59%); conditions: WI-38, 48 h, read-out: Activity
WI-38 [2] = assay: Cell cycle arrest in human WI38 cells assessed as accumulation at subG1 phase at 1 uM after 24 hrs by flow cytometric analysis (reference value: 10.53%)
A2780 [3] = assay: Induction of apoptosis in human A2780 cells assessed as necrotic cells at […] after 48 hrs by annexin V/PI double staining (reference value: 0.53%)
A2780 [4] = assay: Cell cycle arrest in human A2780 cells assessed as accumulation at S phase at 1 uM after 24 hrs by flow cytometric analysis (reference value: 22.72%)
WI-38 [5] = assay: Induction of apoptosis in human WI38 cells assessed as early-stage apoptotic cells at […] after 48 hrs by annexin V/PI double staining (reference value: 2.16%)
HCT-116 = assay: Antiproliferative activity against human HCT116 cells assessed as cell growth inhibition after 72 hrs by MTT assay; conditions: HCT-116, 72 h
WI-38 [6] = assay: Induction of apoptosis in human WI38 cells assessed as late-stage apoptotic cells at 1 uM after 48 hrs by annexin V/PI double staining (reference value: 16.26%)
LNCaP = assay: Antiproliferative activity against AR positive human LNCAP cells assessed as cell growth inhibition after 72 hrs by MTT assay
WI-38 [7] = assay: Induction of apoptosis in human WI38 cells assessed as viable cells at 1 uM after 48 hrs by annexin V/PI double staining (reference value: 80.59%); conditions: WI-38, 48 h, read-out: Activity
WI-38 [8] = assay: Antiproliferative activity against human WI38 cells assessed as cell growth inhibition after 72 hrs by MTT assay; conditions: WI-38, 72 h
WI-38 [9] = assay: Cell cycle arrest in human WI38 cells assessed as accumulation at G2/M phase at […] after 24 hrs by flow cytometric analysis (reference value: 17.36%)
A2780 [10] = assay: Induction of apoptosis in human A2780 cells assessed as early-stage apoptotic cells at 0.06 uM after 48 hrs by annexin V/PI double staining (reference value: 7.13%)
WI-38 [11] = assay: Induction of apoptosis in human WI38 cells assessed as necrotic cells at 1 uM after 48 hrs by annexin V/PI double staining (reference value: 0.99%)
WI-38 [12] = assay: Induction of apoptosis in human WI38 cells assessed as early-stage apoptotic cells at 1 uM after 48 hrs by annexin V/PI double staining (reference value: 2.16%)
WI-38 [13] = assay: Induction of apoptosis in human WI38 cells assessed as necrotic cells at 0.06 uM after 48 hrs by annexin V/PI double staining (reference value: 0.99%)
A2780 [14] = assay: Cell cycle arrest in human A2780 cells assessed as accumulation at S phase at 0.06 uM after 24 hrs by flow cytometric analysis (reference value: 22.72%)
A2780 [15] = assay: Induction of apoptosis in human A2780 cells assessed as late-stage apoptotic cells at 1 uM after 48 hrs by annexin V/PI double staining (reference value: 10.20%)
A2780 [16] = assay: Induction of apoptosis in human A2780 cells assessed as viable cells at 0.06 uM after 48 hrs by annexin V/PI double staining (reference value: 82.12%); conditions: A2780, 48 h, read-out: Activity
WI-38 [17] = assay: Induction of apoptosis in human WI38 cells assessed as early-stage apoptotic cells at 0.06 uM after 48 hrs by annexin V/PI double staining (reference value: 2.16%)
A2780 [18] = assay: Induction of apoptosis in human A2780 cells assessed as viable cells at […] after 48 hrs by annexin V/PI double staining (reference value: 82.12%); conditions: A2780, 48 h, read-out: Activity
A2780 [19] = assay: Induction of apoptosis in human A2780 cells assessed as necrotic cells at 0.06 uM after 48 hrs by annexin V/PI double staining (reference value: 0.53%)
WI-38 [20] = assay: Induction of apoptosis in human WI38 cells assessed as viable cells at 0.06 uM after 48 hrs by annexin V/PI double staining (reference value: 80.59%); conditions: WI-38, 48 h, read-out: Activity
A2780 [21] = assay: Cell cycle arrest in human A2780 cells assessed as accumulation at subG1 phase at 1 uM after 24 hrs by flow cytometric analysis (reference value: 0.62%)
WI-38 [22] = assay: Cell cycle arrest in human WI38 cells assessed as accumulation at G1 phase at 1 uM after 24 hrs by flow cytometric analysis (reference value: 55.89%)
MCF7 = assay: Antiproliferative activity against human MCF7 cells assessed as cell growth inhibition after 72 hrs by MTT assay; conditions: MCF7, 72 h
HeLa = assay: Antiproliferative activity against human HeLa cells assessed as cell growth inhibition after 72 hrs by MTT assay
A2780 [23] = assay: Induction of apoptosis in human A2780 cells assessed as late-stage apoptotic cells at […] after 48 hrs by annexin V/PI double staining (reference value: 10.20%)
WI-38 [24] = assay: Cell cycle arrest in human WI38 cells assessed as accumulation at subG1 phase at […] after 24 hrs by flow cytometric analysis (reference value: 10.53%)
A2780 [25] = assay: Induction of apoptosis in human A2780 cells assessed as late-stage apoptotic cells at 0.06 uM after 48 hrs by annexin V/PI double staining (reference value: 10.20%)
WI-38 [26] = assay: Cell cycle arrest in human WI38 cells assessed as accumulation at G1 phase at 0.06 uM after 24 hrs by flow cytometric analysis (reference value: 55.89%)
WI-38 [27] = assay: Cell cycle arrest in human WI38 cells assessed as accumulation at G2/M phase at 0.06 uM after 24 hrs by flow cytometric analysis (reference value: 17.36%)
A2780 [28] = assay: Induction of apoptosis in human A2780 cells assessed as early-stage apoptotic cells at […] after 48 hrs by annexin V/PI double staining (reference value: 7.13%)
A2780 [29] = assay: Cell cycle arrest in human A2780 cells assessed as accumulation at G1 phase at 1 uM after 24 hrs by flow cytometric analysis (reference value: 54.89%)
[30] = Antiproliferative activity against human PANC1 cells assessed as cell growth inhibition after 72 hrs by MTT assay; conditions: PANC-1, 72 h
WI-38 [31] = assay: Induction of apoptosis in human WI38 cells assessed as late-stage apoptotic cells at […] after 48 hrs by annexin V/PI double staining (reference value: 16.26%)
A2780 [32] = assay: Cell cycle arrest in human A2780 cells assessed as accumulation at G1 phase at 0.06 uM after 24 hrs by flow cytometric analysis (reference value: 54.89%)
WI-38 [33] = assay: Cell cycle arrest in human WI38 cells assessed as accumulation at S phase at 0.06 uM after 24 hrs by flow cytometric analysis (reference value: 16.25%)
A2780 [34] = assay: Cell cycle arrest in human A2780 cells assessed as accumulation at subG1 phase at […] after 24 hrs by flow cytometric analysis (reference value: 0.62%)
A2780 [35] = assay: Cell cycle arrest in human A2780 cells assessed as accumulation at G2/M phase at […] after 24 hrs by flow cytometric analysis (reference value: 21.81%)

COc1cc(OC)c(/C=C/S(=O)(=O)Cc2ccc(OC)c(NCC(=O)O)c2)c(OC)c1 [RIGOSERTIB]
viability at […] (WI-38 [1]): 73.2%
Activity (WI-38 [2]): 6.57%
Activity (A2780 [3]): 0.71%
Activity (A2780 [4]): 33.83%
Activity (WI-38 [5]): 5.36%
GI50 (HCT-116): 70 nM
Activity (WI-38 [6]): 22.43%
GI50 (LNCaP): 25 nM
viability at 1 µM (WI-38 [7]): 65.7%
GI50 (WI-38 [8]): > 10000 nM
Activity (WI-38 [9]): 26.83%
Activity (A2780 [10]): 3.82%
Activity (WI-38 [11]): 2.99%
Activity (WI-38 [12]): 8.88%
Activity (WI-38 [13]): 1.25%
Activity (A2780 [14]): 26.34%
Activity (A2780 [15]): 21.83%
viability at 0.06 µM (A2780 [16]): 89.5%
Activity (WI-38 [17]): 1.68%
viability at […] (A2780 [18]): 46.2%
Activity (A2780 [19]): 0.34%
viability at 0.06 µM (WI-38 [20]): 85.5%
Activity (A2780 [21]): 0.32%
Activity (WI-38 [22]): 53.8%
GI50 (MCF7): 50 nM
GI50 (HeLa): 12 nM
Activity (A2780 [23]): 14.92%
Activity (WI-38 [24]): 9.46%
Activity (A2780 [25]): 6.27%
Activity (WI-38 [26]): 64.47%
Activity (WI-38 [27]): 18%
Activity (A2780 [28]): 38.11%
Activity (A2780 [29]): 5.37%
GI50 [30]: 39 nM
Activity (WI-38 [31]): 19.49%
Activity (A2780 [32]): 53.41%
Activity (WI-38 [33]): 11.86%
Activity (A2780 [34]): 5.98%
Activity (A2780 [35]): 31.77%

COc1cc(OC)c(/C=C/S(=O)(=O)Cc2ccc(OC)c(NS(C)(=O)=O)n2)c(OC)c1
viability at […] (WI-38 [1]): 84.4%
Activity (WI-38 [2]): 5.66%
Activity (A2780 [3]): 0.48%
Activity (A2780 [4]): 19.16%
Activity (WI-38 [5]): 2.86%
GI50 (HCT-116): 610 nM
Activity (WI-38 [6]): 21.15%
GI50 (LNCaP): 450 nM
viability at 1 µM (WI-38 [7]): 67%
GI50 (WI-38 [8]): > 10000 nM
Activity (WI-38 [9]): 14.08%
Activity (A2780 [10]): 4.67%
Activity (WI-38 [11]): 1.73%
Activity (WI-38 [12]): 10.08%
Activity (WI-38 [13]): 0.86%
Activity (A2780 [14]): 20.54%
Activity (A2780 [15]): 24.63%
viability at 0.06 µM (A2780 [16]): 87.4%
Activity (WI-38 [17]): 2.49%
viability at […] (A2780 [18]): 88%
Activity (A2780 [19]): 0.55%
viability at 0.06 µM (WI-38 [20]): 78.1%
Activity (A2780 [21]): 7.27%
Activity (WI-38 [22]): 58.17%
GI50 (MCF7): 468 nM
GI50 (HeLa): 556 nM
Activity (A2780 [23]): 5.88%
Activity (WI-38 [24]): 11.06%
Activity (A2780 [25]): 7.36%
Activity (WI-38 [26]): 51.48%
Activity (WI-38 [27]): 13.96%
Activity (A2780 [28]): 5.55%
Activity (A2780 [29]): 14.2%
GI50 [30]: 604 nM
Activity (WI-38 [31]): 11.58%
Activity (A2780 [32]): 57.73%
Activity (WI-38 [33]): 14.51%
Activity (A2780 [34]): 0.77%
Activity (A2780 [35]): 19.36%

From ChEMBL document CHEMBL3259791, “Discovery of (E)-3-((styrylsulfonyl)methyl)pyridine and (E)-2-((styrylsulfonyl)methyl)pyridine derivatives as anticancer agents: synthesis, structure-activity relationships, and biological activities” (J Med Chem, 2014)
